# Legend:
# [1] = In vitro fluorescence activation of DFHBI-1T by 29-1 and truncation mutants; type: biochemical; settings: excess RNA conditions
# Text: In Vitro Characterization of Aptamers: dsDNA from the brightest bacterial cells in a library was PCR amplified from eluted plasmids. Truncation, deletion and point mutation mutants were generated from dsDNAs PCR amplified based on respective ssDNA templates (Protein and Nucleic Acid Facility, Stanford University Medical Center). Primers were designed so the PCR product contained T7 promoter sequence. When indicated, dsDNA or ssDNA also contained tRNA scaffold part. PCR products were then purified with PCR purification columns (Qiagen) and in vitro transcribed utilizing AmpliScribe T7-Flash Transcription Kit (Epicenter). RNA was purified using Bio-Spin columns (Bio-Rad), and quantified using both absorbance values and the Quant-iT RiboGreen RNA Assay Kit (Life Technologies).
# All in vitro RNA properties were measured in 40 mM HEPES pH 7.4, 100 mM KCl, 1 mM MgCl2 buffer unless specified separately. All values presented are averaging of at least three independent experiments, error bars are standard deviations.
# (§1) To measure the fluorescence of aptamer-fluorophore complexes, an approach that overcomes potential confounding effects of incomplete RNA folding was used. The fluorescence of RNA-fluorophore complexes can be measured in either of two ways: using “excess RNA” or “excess fluorophore” (Ponchon et al., “Recombinant RNA Technology: the tRNA Scaffold,” Nat. Methods 4(7): 571-6 (2007), which is hereby incorporated by reference in its entirety). In an “excess RNA” experiment enough RNA was added to ensure that all the fluorophore (e.g. 1 μM) is bound to the RNA even if a sizeable portion of the RNA is unfolded. As a result, one can be confident that a 1 μM RNA-fluorophore complex is present, and one can therefore calculate the “molar brightness,” the fluorescence of a specific concentration of RNA-fluorophore complex independent of RNA folding. In the case of excess fluorophore experimental conditions were reversed and 1 μM of RNA was used with a vast excess of the fluorophore. In this case, the amount of RNA-fluorophore complex is highly dependent on the amount of RNA that is folded.
# E. coli = assay: Fluorescence measurements of E. coli (colonies, suspensions) expressing aptamers with DFHBI-1T; type: cell-based, Escherichia coli
# Procedure: Fluorescence Measurements of E. coli: Fluorescence measurements of E. coli were done in two general ways. To assess fluorescence brightness of bacterial colonies on a plate Acella or LMG194 strains cells were transferred to a new LB/agar dish with respective antibiotic and allowed to grow overnight at 37° C. Typically four to six colonies for the same aptamer were grown on the same plate to provide statistical data. These plates already contained 40 μM DFHBI-1T (or DFHBI) and 0.2% arabinose (in case of LMG194 strain). When Acella strain was used, 1 mM IPTG was added the next morning and incubation was continued for four to six hours more at 37° C. Bacterial colonies were then imaged under ChemiDoc MP imager as described above and images were processed in ImageJ program.
# To measure fluorescence of bacterial cell suspensions BL21 Star (DE3) (Life Technologies) strain and pET28c-based expression plasmids were used. This combination provided the strongest signal. Fresh colony was inoculated into LB media with kanamycin and allowed to grow overnight at 37° C. to OD600 0.4. The cells were then induced with addition of 1 mM IPTG for 2-4 h at 37° C. After induction, cells were normalized for cell density and incubated with 400 μM DFHBI-1T. Cells were then measured for total fluorescence using a Genios Pro plate reader at 465 nm excitation and 535 nm emission. All values were normalized for slightly different excitation and emission spectra of Spinach2 and Broccoli.
# [2] = Folding measurements with DFHBI-1T; type: physicochemical; settings: for percent folded: in vitro folding assay
# Procedure: Briefly, fluorescence intensity of two solutions were compared: the one having excess of the dye and limiting amount of RNA and the other with excess of RNA and limiting amount of the dye. 1 μM of 1T (or RNA) and 20 μM of RNA (or 1T) was used. Signal from the first condition (limiting RNA) was divided by the signal from the second condition (limiting dye) to determine the fraction folded. To measure folding in a context of different flanking sequences RNA was generated from separate dsDNA fragments. These fragments were PCR amplified to have β-actin, 5S rRNA and 7SK RNA sequences on either or both sides of Broccoli. The folding assay then proceeded as described above.
# as §1
# [3] = Magnesium dependence of aptamer fluorescence; type: physicochemical; settings: MgCl2 titration
# Procedure: To measure magnesium dependence 1 μM RNA was incubated with 10 μM 1T in 40 mM HEPES pH 7.4, 100 mM KCl buffer with different concentrations of MgCl2 and then fluorescence emission was measured on a plate reader.
# HEK293T cells = assay: Flow cytometry of HEK293T cells expressing 5S rRNA-aptamer fusions with DFHBI-1T; type: cell-based; settings: flow cytometry
# Procedure: FIG. 24 illustrates the quantification of the flow cytometry analysis of aptamers expression in mammalian cells. To compare specific aptamers' brightness in mammalian cells, HEK293T cells were transfected with two plasmids: one expressing aptamer (with or without tRNA) fused to 5S rRNA and another expressing mCherry fluorescent protein. Cells were then treated with 40 μM DFHBI-1T and analyzed on FACSAria III instrument in two channels: green (ex=488 nm; em=525±50 nm) and red (ex=561 nm and em=610±20). For quantification, mean fluorescent signal of the non-negative population was calculated and then mean fluorescent signal of the negative population was subtracted from it to assess specific, not background fluorescent signal. Finally, this number was multiplied by the percentage of the non-negative population to provide the total fluorescent signal of the non-negative population. These numbers are plotted on the bar graph above. Where indicated, cells were also pre-treated with 5 mM MgSO4. Error bar indicates robust SD calculated by FlowJo program, used for data analysis.
# Imaging 5S-tBroccoli and 5S-t-tdBroccoli: Plasmids were transfected into HEK293T cell using FuGENE HD reagent (Promega) following manufacture's protocol. Cell imaging was carried out as previously described for 5S-Spinach (Paige et al., “RNA Mimics of Green Fluorescent Protein,” Science 333(6042): 642-6 (2011), which is hereby incorporated by reference in its entirety) with DFHBI-1T instead of DFHBI. […]
# Flow cytometry was used to quantify average brightness of tRNA. Transfected cells were analyzed in two channels: green (ex=488 nm; em=525±50 nm) and red (ex=561 nm; em=610±20). […] As evidenced from FIG. 14A, 5S-tBroccoli and 5S-tdBroccoli are clearly detectable in the green fluorescence channel and this specific signal appears only upon cells treatment with DFHBI-1T (FIG. 23).
Molecule,ability to induce DFHBI-1T fluorescence [1],ability to induce DFHBI-1T fluorescence ([1]; listed as T2),"colony fluorescence compared to 29-1 (E. coli; E. coli colonies on LB-DFHBI-1T agar, tRNA scaffold)",percent folded [2],magnesium concentration giving maximal fluorescence [3],detection in HEK293T cells of 5S fusions without tRNA scaffold (HEK293T cells),"fluorescence of aptamer-expressing E. coli cells (E. coli; tRNA fusions, suspension/plate reader, DFHBI-1T)",folding relative to 29-1 ([2]; in vitro),"increase of E. coli fluorescence with 20 mM MgCl2 (E. coli; LB media with versus without 20 mM MgCl2, after 1 hr)"
"29-1-T2: 56-nucleotide truncation of 29-1, SEQ ID NO: 4 (GAGACGGUCGGGUCCAGCACAAAAAUGUUGCUGUUGAGUAGAGUGUGGGCUC; listed as RNA, chemistry not given here)",retained the ability to induce DFHBI-1T fluorescence,able to induce fluorescence of DFHBI-1T,significantly less bright than colonies expressing 29-1,45%,–,–,–,–,–
"Broccoli: 49 nt RNA aptamer, SEQ ID NO: 75; 29-1-3-1 designated Broccoli (GAGACGGUCGGGUCCAGAUAUUCGUAUCUGUCGAGUAGAGUGUGGGCUC; further chemistry not given here)",–,–,–,–,~300 µM,can be detected in cells,more than twice as fluorescent as Spinach2-expressing cells,80%,–
"tBroccoli: Broccoli with tRNA scaffold, SEQ ID NO: 38 (nucleic acid, chemistry not given here) GCCCGGATAGCTCAGTCGGTAGAGCAGCGGAGACGGTCGGGTCCAGATATTCGTATCTGTCGAGTAGAGTGTGGGCTCCGCGGGTCCAGGGTTCAAGTCCCTGTTCGGGCGCCA",–,–,–,~60%,–,–,–,–,36%

# Source: patent US9664676B2, “RNA sequences that induce fluorescence of small molecule fluorophores” (Cornell University, priority 2013, dated 2017)
